According to US10413559B2, “Method for treating demyelinating disease” (OCHANOMIZU UNIVERSITY, priority 2013, dated 2019):

How the values were obtained:
[1] = test system: GFAP, Iba1, PDGFRa, P2rx7, Nlrp3 gene expression in corpus callosum; test: Genetic analysis using Q-PCR of corpus callosum tissues; type: in vivo, C57BL/6j mice; settings: cuprizone mice; intraperitoneal 1.6 mg/kg/day for 5 weeks; FIG. 6-8
Excerpt: 10-week-old male C57BL/6j mice (Tokyo Laboratory Animals Science Co., Ltd., Tokyo, Japan) were fed by the discretionary intake of a mash feed (CLEA Japan, Inc.) that contained 0.2% cuprizone (biscyclohexanone oxalyl hydrazone; Merck KGaA, Darmstadt, Germany) for 5 weeks until demyelination progressed most, so as to produce demyelination model mice involving demyelination caused by oligodendrocyte-specific cell death.
To obtain mouse corpus callosum tissues to be used for genetic analysis, mouse brain was removed, and the corpus callosum tissues were then collected from the brain. […]
mRNA was extracted from the frozen corpus callosum tissues using ISOGEN (Nippon Gene Co., Ltd., Tokyo, Japan), was then dissolved in RNase free molecular grade water (Takara Bio Inc., Shiga, Japan), and was then preserved at −80° C. […] Gene expression was detected using 7900 Sequence Detection System (Applied Biosystems). […] The gene expression level was calculated by a ΔΔCT method. Data were analyzed by a relative quantification method. A relative change in the gene expression was analyzed, while setting the gene expression level in a control mouse at 100%.

[2] = test system: demyelination model mice (0.2% cuprizone); test: Myelin level by Black Gold staining in cuprizone demyelination model mice (Example 1); type: in vivo, C57BL/6 mice; settings: intraperitoneal 40 μg/200 μl saline/day for 5 weeks, FIG. 2
Description: 10-week-old male C57BL/6 mice were fed with a mash feed containing 0.2% cuprizone for five weeks until the most significant demyelination occurred, so as to produce demyelination model mice. cPA and carba-cPA (cPA) powders were each dissolved in a saline, and the obtained solutions were each administered intraperitoneally at a dose of 40 μg/200 μl saline/day to the mice every day for 5 weeks. On the other hand, to negative control mice, a saline (200 μl/day) was intraperitoneally administered in the same manner as described above. The mice, to which the test compound had been administered, were subjected to perfusion fixation with 4% paraformaldehyde, and sections to be used for frozen tissue staining (30 μm) were then prepared in a cryostat (FIG. 1). The level of myelin in each mouse was measured by Black Gold staining, and the demyelination level was then measured based on the stained level (FIG. 2).

[3] = test system: demyelination model mice (0.2% cuprizone), corpus callosum; test: Histological staining (Black Gold II) of corpus callosum and evaluation of demyelination (Example 2); type: in vivo, C57BL/6j mice; settings: intraperitoneal 1.6 mg/kg/day for 5 weeks, FIG. 3, FIG. 4
Excerpt: 10-week-old male C57BL/6j mice (Tokyo Laboratory Animals Science Co., Ltd., Tokyo, Japan) were fed by the discretionary intake of a mash feed (CLEA Japan, Inc.) that contained 0.2% cuprizone (biscyclohexanone oxalyl hydrazone; Merck KGaA, Darmstadt, Germany) for 5 weeks until demyelination progressed most, so as to produce demyelination model mice involving demyelination caused by oligodendrocyte-specific cell death. To obtain tissues to be used for histological analysis, a mouse was subjected to perfusion fixation through the heart with 4% paraformaldehyde, and the resulting brain tissues were then excised from the mouse. Thereafter, the tissues were immobilized and infiltrated with 30% sucrose. Thereafter, a frozen tissue block was prepared and was then sliced in a cryostat. The cPA used in the experiment was the same cPA (16:0) as that used in Example 1, and the carba-cPA was 2 ccPA (16:1). The cPA and 2 ccPA were chemically purified (Biochimica et Biophysica Acta, Emi Nozaki 2011), and were then dissolved in a 0.9% saline. […] For the analysis of the level of myelin, using Image J 1.46r software, the stained level in the corpus callosum area was measured, and the demyelination level was then evaluated, while setting the control as 100%.

SMILES: CCCCCCCCCCCCCCCC(=O)OCC1COP(=O)(O)O1 (stereo not drawn) [cPA]
- nerve inflammation (gene expression by Q-PCR) [1]: nerve inflammation is suppressed
- level of myelin (Black Gold staining) versus control mouse [2]: higher than the level of myelin in a control mouse
- demyelination level in corpus callosum (Black Gold II staining) [3]: demyelination is suppressed
